Results as given in patent publication US20070202079A1, “Therapeutic compositions and methods useful in modulating protein tyrosine phosphatases” (priority 2006, published 2007).
Entries after “also recorded” stand apart in the source; their conditions may differ.

Assays:
DU145 cells = assay: DU145 cell growth, MTT; format: cell-based, human
Description: (§1) For cell proliferation assays, cells were grown in 10% FCS culture medium containing various amounts of IFNs and/or sodium stibogluconate in 96 well plates and cultured at 37° C. for 3 or 6 days as indicated. The numbers of viable cells in proliferation assays were determined by MTT assays as described in Phatak et al., J. Immunol. 167, 3391 (2001).
NIH3T3 (Yi, et al., Blood 85, 87 (1995)), WM9 (Forsberg, et al., Proc. Nat. Acad Sci. USA 90, 393 (1993)), DU145 (Mickey, et al., Cancer Res. 37, 4049 (1977)), LoVo (Drewinko, et al., Cancer Res. 36, 467 (1976)), HEY (Buick, et al., Cancer Res. 45, 3668 (1985)), U251 (Yoshida, et al., Cancer 50, 410 (1982)), A549 (Giard, et al., J. Natl. Cancer Inst. 51, 1417 (1973)) and SK-N-SH (Helson, et al., Cancer Res. 35, 2594 (1975)) cell lines have been described and were cultured in RPMI 1640 supplemented with 10% fetal calf serum (FCS). For measurement of sodium stibogluconate effects on cell growth in vitro, cells were cultured in the absence (−) or presence (+) of various amounts of sodium stibogluconate for 6 days with viable cells quantified by MTT assays (Mosmann, J. Immunol. Methods 65, 55 (1983)). Percentages of growth inhibition by sodium stibogluconate were calculated (.+−.x%).

PTP1B = molecular target: T1, PTP1B (Homo sapiens, UniProt P18031); assay: in vitro PTPase assay, GST/PTP1B; format: biochemical
T1 construct: purchased Upstate Biotechnology Inc. (Lake Placid, N.Y.)
T1 sequence (P18031 whole entry, species assumed): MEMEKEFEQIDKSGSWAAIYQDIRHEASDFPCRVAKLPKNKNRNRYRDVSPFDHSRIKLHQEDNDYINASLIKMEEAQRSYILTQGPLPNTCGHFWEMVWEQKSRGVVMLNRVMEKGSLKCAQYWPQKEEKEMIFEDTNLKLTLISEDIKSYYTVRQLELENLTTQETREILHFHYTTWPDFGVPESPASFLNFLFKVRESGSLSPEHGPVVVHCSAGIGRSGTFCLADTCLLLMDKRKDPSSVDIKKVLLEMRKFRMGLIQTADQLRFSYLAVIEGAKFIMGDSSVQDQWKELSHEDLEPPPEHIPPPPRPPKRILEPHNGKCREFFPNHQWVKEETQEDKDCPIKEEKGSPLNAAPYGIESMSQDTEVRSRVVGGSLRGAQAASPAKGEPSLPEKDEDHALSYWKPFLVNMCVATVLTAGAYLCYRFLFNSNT
Description: In vitro PTPase activities were measured using the commercial protein tyrosine phosphatase assay kit (Upstate Biotechnology, Inc. (“UBI”)) following established procedure known to one of skill in the art. This assay measures the in vitro dephosphorylation of a synthetic phosphotyrosine peptide of the sequence Arg-Arg-Leu-Ile-Glu-Asp-Ala-Gle-T- -yr-Ala-Ala-Arg-Gly, wherein the tyrosine is phosphorylated (SEQ ID NO: 3). Briefly, 0.01 μg of GST/PTPase fusion proteins was incubated in 50 μl of Tris buffer (10 mM Tris, pH 7.4) containing different concentrations of inhibitors or chemicals (0-1,000 μg/ml) at 22° C. for 10 minutes, followed by addition of 0.2 mM of the phosphotyrosine peptide and incubation at 22° C. for 18 hours. 100 μl of Malachite Green solution was added and incubated for 5 minutes, and the absorbance at 660 nm was measured after 5 minutes.
In vitro PTPase assays were used to determine the effects of levamisole (Sigma), pentamidine (American Pharmaceutical Partners, Inc.), and ketoconazole (Sigma) on recombinant PTPases, following established procedures (Pathak et al., J. Immunol. 167, 3391 (2001); Pathak et al., Leukemia 16, 2285 (2002), Yi et al., J. Immunol. 169, 5978 (2002)) using a synthetic phosphotyrosine peptide or DiFMUP as the substrate as detailed above in section I.A.2.

WiT49-N1 = WiT49-N1 cell growth, MTT; format: cell-based, human; details: day 6
Description: as §1

[1] = test system: Jak2/Stat5 tyrosine phosphorylation in Baf3 cells; assay: cellular protein tyrosine phosphorylation in Baf3 cells, Western blotting; format: cell-based, murine
Description: For induction of cellular protein phosphorylation by sodium stibogluconate or pervanadate, Baf3 cells were incubated in 0.1% FCS-RPMI 1640 medium at 37° C. for 16 hours. The cells were then washed twice in RPMI 1640 medium and incubated with sodium stibogluconate or pervanandate (0.1 mM) for various times prior to termination by lysing cells in cold lysis buffer (50 mM Tris, pH 7.4; 150 mM NaCl; 0.2 mM Na3VO4; 20 mm NaF; 1% Nonidet P-40; 2 mM PMSF; 20 μg/ml of Aprotinin and 1 mM of sodium molybdic acid). To determine the effect of sodium stibogluconate or potassium antimonyl tartrate on IL-3-induced Jak/Stat phosphorylation, Baf3 cells were deprived of the growth factor for 16 hours in 0.1% FCS RPMI 1640 medium and then incubated with or without sodium stibogluconate or potassium antimonyl tartrate for 10 minutes. IL-3 was next added to the cell suspension and incubated for various times. The Cells were then harvested and lysed in cold lysis buffer at 4° C. for 45 minutes. Total cell lysates (TCL) were separated in SDS-PAGE gels, blotted onto nitrocellulose membrane (Schleicher & Schuell), probed with specific antibodies and detected using an enhanced chemiluminescence kit (ECL, Amersham, Arlington Heights, Ill.).

toxicity in nude mice = format: in vivo
Description: Nude mice bearing WM9 or DU145 xenografts were treated with IFN-alpha (500,000 U, s.c., daily), sodium stibogluconate (12 mg Sb, s.c., daily) or both. […] The dosage of sodium stibogluconate corresponds to approximately 440 mg Sb/kg body weight (average mouse body weight 27 g), substantially higher than the standard therapeutic dose of 20 mg Sb/kg and the high dose (143 mg Sb/kg) that was clinically used by accident without serious toxicity. This dose of sodium stibogluconate was based on a previous observation in a pilot study that mice could tolerate daily dose of 20 mg Sb (approximately 700-800 mg Sb/kg). An observation that the effect of sodium stibogluconate in inhibiting the growth of the cancer cell lines in vitro was dose-dependent with complete or near complete killing of the cancer cells at 100 μg Sb/ml (or […]) was also considered. […]
As discussed above, the dosage of sodium stibogluconate used for the treatment of nude mice was 12 mg Sb/mouse, s.c., daily (or approximately 440 mg/kg body weight). […] As an initial step to assess the toxicity of such a high dosage of sodium stibogluconate in nude mice, the effect of sodium stibogluconate on the viability and body weights of WM9 xenografts nude mice during the 25 day period of the study was determined.

WM35 = WM35 cell growth, MTT; format: cell-based, human
Description: as §1

In the case of `O.O.O.O.O.O.O.O.O.O=C([O-])[C@@H]1[O][Sb]2([O-])([O][Sb]34([OH])[O][C@H]([C@H](O)CO)[C@H]([O]3)[C@H](C(=O)[O-])[O]4)[O][C@H]([C@H](O)CO)[C@@H]1[O]2.[Na+].[Na+].[Na+]` [sodium stibogluconate], the “DU145 cells, single agent” value (DU145 cells; 50 μg/ml and 100 μg/ml, day 6 culture) was “killed all cells”, the “cell killing of DU145” value (DU145 cells; 100 μg/ml, day 6) was “near-complete cell killing” and the “inhibition of PTP1B compared with the three drugs” value (PTP1B) was “only modestly effective”. For the same molecule, the “WiT49-N1 growth inhibition activity with IFN-alpha” value (WiT49-N1) was “not enhanced by IFN-alpha”, the “induction of cellular protein tyrosine phosphorylation” value ([1]; Baf3 deprived of IL-3, compared with pervanadate 0.1 mM) was “modest and transient” and the “phosphotyrosine levels of Jak2 and Stat5 versus cells without drug” value ([1]; IL-3 stimulated, densitometry) was “about twice”. The “Jak2/Stat5 tyrosine phosphorylation by drug alone” value ([1]; no IL-3, 16 hours at 37 °C) was “failed to induce Jak2/Stat5 tyrosine phosphorylation”, the “viability and tolerance of treated mice” value (toxicity in nude mice; WM9 xenograft mice, 25 days, 12 mg Sb daily (440 mg Sb/kg), IFN-alpha 500,000 U) was “survived until the end of the study; also recorded: well tolerated with no serious side effects” and the “tolerated daily dose, pilot study” value (toxicity in nude mice; mice, approximately 700-800 mg Sb/kg) was 20 mg Sb. The “sensitivity of WM35 cells” value (WM35) was “minimally affected”.
